The results in this text go back to patent US20240101570A1 (AMGEN INC., priority 2020, published 2024).

Each structure is given as a SMILES string.

The subject of one assay is HCT116 WT cells. The assay can be described thus: HCT116 WT cell proliferation / viability (CellTiter-Glo, 6 days). Type of assay: cell-based. The following applies: Homo sapiens, HCT-116, 144 h, HCT116 WT cells, 6 days, CellTiter-Glo; read-out: HCT-116 WT IC50. In short, it runs like this: (§1)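 IC50 values derive from sigmoidal dose-response fits, some with Hill slope fixed at −1 and top constrained to 100%, others from 4-parameter logistic models. They reflect CellTiter-Glo viability after 6 days of compound exposure at up to 10 or 50 μM.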

Another assay relates to HCT116 MTAP null cells. The assay can be described thus: HCT116 MTAP null cell proliferation / viability (CellTiter-Glo, 6 days). Type of assay: cell-based. The following applies: HCT116-MTAP null, 144 h, HCT116 MTAP null cells, 6 days, CellTiter-Glo; read-out: HCT-116 MTAP null IC50. The method, boiled down: as §1

Consider `N#Cc1ccc(CN(CC2CC2)C(=O)c2cc3c4c(c(N)nc3cc2Cl)COC4)nc1` [Example 474, 4-amino-7-chloro-N-((5-cyano-2-pyridinyl)methyl)-N-(cyclopropylmethyl)-1,3-dihydrofuro[3,4-c]quinoline-8-carboxamide], for which the IC50 turned out to be 1330 nM in the assay on HCT116 WT cells and 30 nM in the assay on HCT116 MTAP null cells.
On the same counts, the results for `CN(Cc1ccc(C(F)(F)F)cn1)C(=O)c1cc2c3c(c(N)nc2cc1F)COC3` [Example 475, 4-amino-7-fluoro-N-methyl-N-((5-(trifluoromethyl)-2-pyridinyl)methyl)-1,3-dihydrofuro[3,4-c]quinoline-8-carboxamide] are 7810 nM and 375 nM.
The corresponding values for `N#Cc1ccc(CN(C(=O)c2cc3c4c(c(N)nc3cc2F)COC4)C2CC2)nc1` [Example 476, 4-amino-N-((5-cyano-2-pyridinyl)methyl)-N-cyclopropyl-7-fluoro-1,3-dihydrofuro[3,4-c]quinoline-8-carboxamide] are 4460 nM and 1370 nM.
Regarding `CC(C)N(Cc1ccc(C#N)cn1)C(=O)c1cc2c3c(c(N)nc2cc1F)COC3` [Example 477, 4-amino-N-((5-cyano-2-pyridinyl)methyl)-7-fluoro-N-(2-propanyl)-1,3-dihydrofuro[3,4-c]quinoline-8-carboxamide], the IC50 in the assay with HCT116 WT cells came out at 19400 nM; in the assay with HCT116 MTAP null cells, 655 nM.
The corresponding values for `CN(Cc1ccc(C2CC2)cn1)C(=O)c1cc2c3c(c(N)nc2cc1Cl)COC3` [Example 478, 4-amino-7-chloro-N-((5-cyclopropyl-2-pyridinyl)methyl)-N-methyl-1,3-dihydrofuro[3,4-c]quinoline-8-carboxamide] are 9580 nM and 82 nM.
As to `CN(Cc1ccc(C#N)cn1)C(=O)c1cc2c3c(c(N)nc2cc1F)COC3` [Example 479, 4-amino-N-((5-cyano-2-pyridinyl)methyl)-7-fluoro-N-methyl-1,3-dihydrofuro[3,4-c]quinoline-8-carboxamide], the results for the 50% inhibitory concentration (IC50) in the assay on HCT116 WT cells and with HCT116 MTAP null cells were 17100 nM and 328 nM, respectively.
On the same counts, the results for `Nc1nc2cc(Cl)c(C(=O)N(Cc3ccc(C4CC4)cn3)C3CC3)cc2c2c1COC2` [Example 480, 4-amino-7-chloro-N-cyclopropyl-N-((5-cyclopropyl-2-pyridinyl)methyl)-1,3-dihydrofuro[3,4-c]quinoline-8-carboxamide] are 1450 nM and 272 nM.
On the same counts, the results for `C[C@H]1OCc2c1c(N)nc1ccc(C(=O)N(Cc3ccc(C(F)(F)F)cn3)CC(F)(F)F)cc21` [Example 481, (3R)-4-amino-3-methyl-N-(2,2,2-trifluoroethyl)-N-((5-(trifluoromethyl)-2-pyridinyl)methyl)-1,3-dihydrofuro[3,4-c]quinoline-8-carboxamide] are 5710 nM and 74 nM.
With `CCOc1ccc(CN(C(=O)c2ccc3nc(N)c4c(c3c2)CO[C@@H]4C)C23CC(C2)C3)nn1` [Example 482, (3R)-4-amino-N-(bicyclo[1.1.1]pentan-1-yl)-N-((6-ethoxy-3-pyridazinyl)methyl)-3-methyl-1,3-dihydrofuro[3,4-c]quinoline-8-carboxamide], the IC50 is 2640 nM with HCT116 WT cells and 52 nM in the assay with HCT116 MTAP null cells.
The corresponding values for `Nc1nc2ccc(C(=O)N(Cc3ccc(C(F)(F)F)cn3)CC(F)(F)F)cc2c2c1COC2` [Example 483, 4-amino-N-(2,2,2-trifluoroethyl)-N-((5-(trifluoromethyl)-2-pyridinyl)methyl)-1,3-dihydrofuro[3,4-c]quinoline-8-carboxamide] are 7290 nM and 458 nM.
On the same counts, the results for `CC(C)N(Cc1ccc(C(F)(F)F)cn1)C(=O)c1cc2c3c(c(N)nc2cc1Cl)COC3` [Example 484, 4-amino-7-chloro-N-(2-propanyl)-N-((5-(trifluoromethyl)-2-pyridinyl)methyl)-1,3-dihydrofuro[3,4-c]quinoline-8-carboxamide] are 402 nM and 20 nM.
On the same counts, the results for `C[C@H]1OCc2c1c(N)nc1ccc(C(=O)N(C)Cc3ccc(C(F)(F)F)nn3)cc21` [Example 485, (3R)-4-amino-N,3-dimethyl-N-((6-(trifluoromethyl)-3-pyridazinyl)methyl)-1,3-dihydrofuro[3,4-c]quinoline-8-carboxamide] are 32100 nM and 365 nM.
Take `Nc1nc2cnc(C(=O)N(Cc3ccc(C(F)(F)F)cn3)CC(F)(F)F)cc2c2c1COC2` [Example 486, 4-amino-N-(2,2,2-trifluoroethyl)-N-((5-(trifluoromethyl)-2-pyridinyl)methyl)-1,3-dihydrofuro[3,4-c][1,7]naphthyridine-8-carboxamide]: the IC50 with HCT116 WT cells was determined as 17500 nM; in the assay with HCT116 MTAP null cells it was 445 nM.
The corresponding values for `C[C@H]1OCc2c1c(N)nc1ccc(C(=O)N(Cc3ccc(C(F)(F)F)cn3)C3CCOCC3)cc21` [Example 489, (3R)-4-amino-3-methyl-N-(tetrahydro-2H-pyran-4-yl)-N-((5-(trifluoromethyl)-2-pyridinyl)methyl)-1,3-dihydrofuro[3,4-c]quinoline-8-carboxamide] are 5210 nM and 276 nM.
With `Nc1nc2cc(Cl)c(C(=O)N(Cc3ccc(C(F)(F)F)nn3)C3CC3)cc2c2c1COC2` [Example 490, 4-amino-7-chloro-N-cyclopropyl-N-((6-(trifluoromethyl)-3-pyridazinyl)methyl)-1,3-dihydrofuro[3,4-c]quinoline-8-carboxamide], the IC50 came out at 3480 nM with HCT116 WT cells and 87 nM in the assay on HCT116 MTAP null cells.
On the same counts, the results for `Cn1cc(N(Cc2ccc(C(F)(F)F)cn2)C(=O)c2cc3c4c(c(N)nc3cn2)CCC4)cn1` [Example 492, 6-amino-N-(1-methyl-1H-pyrazol-4-yl)-N-((5-(trifluoromethyl)-2-pyridinyl)methyl)-8,9-dihydro-7H-cyclopenta[c][1,7]naphthyridine-2-carboxamide] are 622 nM and 48 nM.
On the same counts, the results for `Cn1cc(N(Cc2ccc(C(F)F)cn2)C(=O)c2cc3c4c(c(N)nc3cn2)CCC4)cn1` [Example 493, 6-amino-N-((5-(difluoromethyl)-2-pyridinyl)methyl)-N-(1-methyl-1H-pyrazol-4-yl)-8,9-dihydro-7H-cyclopenta[c][1,7]naphthyridine-2-carboxamide] are 1160 nM and 124 nM.
`Cn1ncc2c3cc(C(=O)N(Cc4ccc(C(F)(F)F)cn4)C4(C)CC4)ccc3nc(N)c21` [Example 494, 4-amino-3-methyl-N-(1-methylcyclopropyl)-N-((5-(trifluoromethyl)-2-pyridinyl)methyl)-3H-pyrazolo[3,4-c]quinoline-8-carboxamide]: the IC50 is 9070 nM in the assay with HCT116 WT cells and 282 nM with HCT116 MTAP null cells.
The corresponding values for `Cn1cc(N(Cc2ccc(C(F)(F)F)cn2)C(=O)c2ccc3nc(N)c4c(cnn4C)c3c2)cn1` [Example 495, 4-amino-3-methyl-N-(1-methyl-1H-pyrazol-4-yl)-N-((5-(trifluoromethyl)-2-pyridinyl)methyl)-3H-pyrazolo[3,4-c]quinoline-8-carboxamide] are 6360 nM and 79 nM.
The corresponding values for `CC(C)N(Cc1cnc(C(F)(F)F)cn1)C(=O)c1cc2c3c(c(N)nc2cc1F)COC3` [Example 496, 4-amino-7-fluoro-N-(2-propanyl)-N-((5-(trifluoromethyl)-2-pyrazinyl)methyl)-1,3-dihydrofuro[3,4-c]quinoline-8-carboxamide] are 2240 nM and 1270 nM.
